Data taken from ChEMBL document CHEMBL1131277, “Functionalized 1,3-teraryls as a new class of hepatoprotectants. Part V” (1998).

Experiments:
Format in all cases: functional
[1] = test system: Rattus norvegicus; test: Hepatoprotective activity against thioacetamide-induced toxicity in various levels of serum ALP in rats was evaluated at 10 mg/kg dose (p.o. x 7 days)
[2] = test system: Rattus norvegicus; test: Hepatoprotective activity against thioacetamide-induced toxicity in various levels of serum GOT in rats was evaluated at 10 mg/kg dose (p.o. x 7 days)
[3] = test system: Rattus norvegicus; test: Hepatoprotective activity against thioacetamide-induced toxicity in various levels of serum GPT in rats was evaluated at 10 mg/kg dose (p.o. x 7 days)
[4] = species: Rattus norvegicus; test: Percent protection afforded by the compound in serum alkaline phosphatase (APL) level was determined; set-up: concentration or dose not given beside the values
[5] = species: Rattus norvegicus; test: Percent protection afforded by the compound in serum glutamate oxaloacetate transaminase (GOT) level was determined; set-up: concentration or dose not given beside the values
[6] = species: Rattus norvegicus; test: Percent protection afforded by the compound in serum glutamate pyruvate transaminase (GPT) level was determined; set-up: concentration or dose not given beside the values

Row | Compound | Enzyme level ([1]; route oral) [U l-1] | Enzyme level ([2]; route oral) [U l-1] | Enzyme level ([3]; route oral) [U l-1] | Protection [4] [%] | Protection [5] [%] | Protection [6] [%] | Enzyme level [1] [U l-1] | Enzyme level [2] [U l-1] | Enzyme level [3] [U l-1]
1 | COC(=O)c1c(SC)cc(-c2ccc(F)cc2)cc1-c1ccc(Cl)c(Cl)c1 | 235.5 | 159.3 | 186.3 | 46 | 57 | 71 |  |  | 
2 | COC(=O)c1c(SC)cc(-c2ccc(Cl)cc2)cc1-c1ccc(Cl)c(Cl)c1 | 245.1 | 147.3 | 258.1 | 42 | 66 | 49 |  |  | 
3 | COC(=O)c1c(SC)cc(-c2ccc(F)cc2)cc1-c1ccc(F)cc1 | 341.2 | 229.1 | 370.2 | 3 | 5 | 12 |  |  | 
4 | COC(=O)c1c(SC)cc(-c2ccc(Cl)cc2)cc1-c1ccc(Br)cc1 | 330.2 | 208.3 | 361.5 | 8 | 20 | 15 |  |  | 
5 | COC(=O)c1c(SC)cc(-c2ccc(Cl)cc2)cc1-c1ccc([N+](=O)[O-])cc1 | 289.9 | 229.4 | 270.4 | 24 | 5 | 44 |  |  | 
6 | COC(=O)c1c(SC)cc(-c2ccc(Cl)cc2)cc1-c1ccc(Cl)cc1 | 268.2 | 186.3 | 248.5 | 33 | 37 | 51 |  |  | 
7 | COC(=O)c1c(SC)cc(-c2ccc(F)cc2)cc1-c1cccc([N+](=O)[O-])c1 | 307.2 | 208.9 | 360.1 | 17 | 20 | 15 |  |  | 
8 | COC(=O)c1c(SC)cc(-c2ccc(F)c(Cl)c2)cc1-c1cccc([N+](=O)[O-])c1 | 304.1 | 211.6 | 370.2 | 18 | 18 | 12 |  |  | 
9 | COC(=O)c1c(SC)cc(-c2ccc(Cl)cc2)cc1-c1ccc(F)cc1 | 334.2 | 222.3 | 392.3 | 6 | 10 | 5 |  |  | 
10 | COC(=O)c1c(SC)cc(-c2ccc(Cl)cc2)cc1-c1cccc([N+](=O)[O-])c1 | 203.6 | 149.9 | 190.1 | 60 | 64 | 70 |  |  | 
11 | SILYMARIN |  |  |  | 52 | 64 | 61 | 220 | 150 | 218
12 | COC(=O)c1c(SC)cc(-c2ccc(Br)cc2)cc1-c1ccc(Br)cc1 | 324.2 | 202.1 | 295.4 | 10 | 25 | 36 |  |  | 
